Measurements published in patent publication US4537723A, “Derivatives of leukotrienes A and C” (The Upjohn Company, priority 1983, dated 1985).

Tested on: SRS-A formation in rat mononuclear cells
Assay: SRS-A formation in rat mononuclear cells incubated with cysteine and challenged with a calcium ionophore
Format: cell-based
Details: 10 μg/ml; for inhibition at 10 µg/mL: Rattus norvegicus, read-out: effectiveness in preventing the synthesis of SRS-A
Protocol: As an example of the SRS-A inhibitory activity of the compounds of this invention, several of these compounds were evaluated in a standard laboratory test. This test is conducted in rat mononuclear cells incubated in the presence of cysteine and challenged with a calcium ionophore (which induces SRS-A formation). In this test system, two of these compounds, the isomers of 1-carboxy-3-N-octylcyclopropane-2-octanoic acid.

Row | Structure (SMILES) | inhibition at 10 µg/mL [%] | inhibition of the synthesis of SRS-A (rat mononuclear cells, calcium ionophore challenge)
1 | CCCCCCCCC([Se]c1ccccc1)C(O)CCCCCCCC(=O)O (stereo not drawn) [9-Hydroxy-10-Phenylselenyloctadecanoic Acid] | 100 | 
2 | CCCCCCCCC(O)C(CCCCCCCC(=O)O)[Se]c1ccccc1 (stereo not drawn) [9-Phenylselenyl-10-Hydroxyoctadecanoic Acid] | 100 | 
3 | CCCCCCCCC1C(CCCCCCCC(=O)O)C1C(=O)O (stereo not drawn) [Example 4, 1-Carboxy-3-n-Octylcyclopropane-2-Octanoic Acid] |  | totally inhibited
